pKi: −log10 of the molar value. Structures can show the parent of a compound that is named as a salt.

Results on ten compounds are retold here after patent publication US20070281922A1, “1-Sulfonylindazolylamine and - amide derivatives as 5-hydroxytryptamine-6 ligands” (Wyeth, priority 2006, published 2007).

The target of the assay is T1, human cloned 5-HT6 receptors (Homo sapiens, UniProt P50406).
T1 construct: expressed in transfected cells; host or cells: HeLa cells
T1 sequence (P50406 whole entry): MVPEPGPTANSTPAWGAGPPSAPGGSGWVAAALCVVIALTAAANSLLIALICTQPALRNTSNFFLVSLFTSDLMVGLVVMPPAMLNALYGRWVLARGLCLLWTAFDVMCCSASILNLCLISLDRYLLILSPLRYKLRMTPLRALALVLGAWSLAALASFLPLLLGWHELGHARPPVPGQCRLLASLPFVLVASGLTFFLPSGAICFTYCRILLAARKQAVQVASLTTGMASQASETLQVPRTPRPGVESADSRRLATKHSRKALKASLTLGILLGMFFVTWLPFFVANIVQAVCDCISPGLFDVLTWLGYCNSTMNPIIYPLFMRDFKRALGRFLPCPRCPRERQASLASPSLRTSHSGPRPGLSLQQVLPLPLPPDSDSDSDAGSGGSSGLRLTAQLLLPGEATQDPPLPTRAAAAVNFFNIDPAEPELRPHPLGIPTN
Put plainly: 5-HT6 binding affinity, [3H]-LSD displacement on membranes of Hela cells expressing human cloned 5-HT6 receptors. The following applies: [3H]-LSD 3.0 nM, Hela cell membranes, 120 minutes at room temperature. As for the experimental part: The affinity of test compounds for the serotonin 5-HT6 receptor was evaluated in the following manner. Cultured Hela cells expressing human cloned 5-HT6 receptors were harvested and centrifuged at low speed (1,000×g) for 10.0 minutes to remove the culture media. The harvested cells were suspended in half volume of fresh physiological phosphate buffered saline solution and recentrifuged at the same speed. This operation was repeated. The collected cells were then homogenized in ten volumes of 50 mM Tris.HCl (pH 7.4) and 0.5 mM EDTA. The homogenate was centrifuged at 40,000×g for 30.0 min and the precipitate was collected. The obtained pellet was resuspended in 10 volumes of Tris.HCl buffer and recentrifuged at the same speed. The final pellet was suspended in a small volume of Tris.HCl buffer and the tissue protein content was determined in aliquots of 10-25 μl volumes. Bovine Serum Albumin was used as the standard in the protein determination according to the method described in Lowry et al., J. Biol. Chem., 193: 265 (1951).
The volume of the suspended cell membranes was adjusted to give a tissue protein concentration of 1.0 mg/ml of suspension. The prepared membrane suspension (10 times concentrated) was aliquoted in 1.0 ml volumes and stored at −70° C. until used in subsequent binding experiments.
Binding experiments were performed in a 96 well microtiter plate format, in a total volume of 200 μl. […] The test compounds were added in 20.0 μl volume.
The reaction was allowed to proceed in the dark for 120 minutes at room temperature, at which time, the bound ligand-receptor complex was filtered off on a 96 well unifilter with a Packard Filtermate® 196 Harvester. The bound complex caught on the filter disk was allowed to air dry and the radioactivity is measured in a Packard TopCount® equipped with six photomultiplier detectors, after the addition of 40.0 μl Microscint®-20 scintillant to each shallow well. The unifilter plate was heat-sealed and counted in a PackardTopCount® with a tritium efficiency of 31.0%.
Binding in the presence of varying concentrations of test compound was expressed as a percentage of specific binding in the absence of test compound. The results were plotted as log % bound versus log concentration of test compound. […] A linear regression line of data points was plotted, from which the IC50 value is determined and the Ki value is determined based upon the following equation: […]
where L was the concentration of the radioactive ligand used and KD is the dissociation constant of the ligand for the receptor, both expressed in nM.
Turning to `O=C(CCN1CCCCC1)Nc1ccc2cnn(S(=O)(=O)c3cccc4ccccc34)c2c1` [Example 12], the negative-log Ki (pKi) was 7.82.
Next, `NCCC(=O)Nc1cccc2c1cnn2S(=O)(=O)c1cccc2ccccc12` [Example 5]: 8.10.
In turn, `CCN(CC)CCC(=O)Nc1ccc2cnn(S(=O)(=O)c3cccc4ccccc34)c2c1` [Example 11] had a pKi of 8.68.
Next, `NCCC(=O)Nc1ccc2c(cnn2S(=O)(=O)c2cccc3ccccc23)c1` [Example 6]: 7.31; `O=C(Nc1ccc2cnn(S(=O)(=O)c3cccc4ccccc34)c2c1)C1CCNCC1` [Example 8]: 8.64; `O=C(Nc1ccc2cnn(S(=O)(=O)c3cccc4ccccc34)c2c1)C1CCCNC1` (stereo not shown) [Example 9]: 8.47.
As for `CNCCC(=O)Nc1ccc2cnn(S(=O)(=O)c3cccc4ccccc34)c2c1` [Example 7], the figure is 8.92; as for `O=S(=O)(c1cccc2ccccc12)n1ncc2ccc(NCC3CCNCC3)cc21` [Example 14, [1-(Naphthalene-1-sulfonyl)-1H-indazol-6-yl]-piperidin-4-ylmethyl-amine dihydrochloride], 7.74; as for `NCCC(=O)Nc1ccc2cnn(S(=O)(=O)c3cccc4ccccc34)c2c1` [Example 4, N^1-[1-(1-naphthylsulfonyl-1-H-indazol-6-yl]beta-alaninamide Hydrochloride], 9.30.
As for `CN(C)CCC(=O)Nc1ccc2cnn(S(=O)(=O)c3cccc4ccccc34)c2c1` [Example 10], the figure is 8.74.
